Assays:
[1] = test system: 6-mm full-thickness excisional skin wounds; assay: Wound healing and scar formation, excisional skin wounds in mice; assay type: in vivo, C57BL/6J mice; conditions: 14 days
Protocol: C57BL/6J mice were maintained at 22°C under a 12-h light/dark cycle. The experiments were performed with 12-week-old mice. After anesthetized by an intraperitoneal injection of ketamine (500 mg/kg) and xylazine (100 mg/kg), 6-mm full-thickness excisional skin wounds was made on the backs of mice using 6-mm skin biopsy punches. Immediately after wounding, 10-1200 µM of adenine or saline alone was applied to the wound bed. The skin wounds were then covered by semipermeable transparent dressing and fixed to the skin. The mice were treated with adenine or vehicle for 14 days and then sacrificed. The scar formation is assessed by Masson's trichrome staining (the tissue was fixed by 4% paraformaldehyde).

Hep G2 = assay: Cancer cell growth inhibition assay, Hep G2; assay type: cell-based; conditions: Homo sapiens; HepG2 cell proliferation, 72 h, cell counting
Protocol: Human liver hepatocellular carcinoma cell line Hep G2, human breast adenocarcinoma cell line MCF7 and human colon adenocarcinoma grade II cell line HT29 were used to evaluate the effects of adenine on cell proliferation. Those cell lines were obtained from ATCC and were cultured in high-glucose Dulbecco's modified Eagle's medium (DMEM) containing 10% fetal bovine serum (FBS), 4 mM L-glutamine, 2 mM sodium pyruvate and 1% penicillin/streptomycin (Invitrogen GibcoBRL, Carlsbad, Calif., USA) at 37°C under 5% CO2. Cells were plated at 1 × 10^5 per well (6-well plate). Twenty-four hours after plating, cells were treated with indicated concentration of adenine for 72 h and then followed by cell counting. Cells were detached using trypsin-EDTA solution and stained with trypan blue. The living cells were counted using hemocytometer.

high-fat diet-fed mice = assay: Anti-diabetic effects in high-fat diet-fed mice; assay type: in vivo, C57BL/6J mice; conditions: adenine 0.1 to 50 mg/kg IP twice a day for 6 days, compared to control group
Protocol: To further evaluate the effects of adenine on the modulation of plasma glucose level, the high-fat diet-fed mice were served as a type 2 diabetes animal model. C57BL/6J mice were maintained at 22°C under a 12-h light/dark cycle and fed either a high fat diet (60% kcal% fat) or a normal diet ad libitum. Intraperitoneal injections of adenine (0.1 to 50 mg/kg) or vehicle were given to the high-fat diet-fed mice from the age of 24 weeks and glucose readings were measure at 1 and 3 hr. IP administration of adenine or vehicle only to the high-fat diet-fed mice continued twice a day for 6 days. On day 6, plasma was collected 1 hr after the last dosing for analyzing, evaluating, measuring plasma glucose and triglycerides.

muscle cell C2C12 = assay: Glucose uptake in vitro (fluorescent glucose analog 2-NBDG); assay type: cell-based, Mouse; conditions: C2C12 cells, 30 min, mean±SEM of three experiments
Protocol: Effects of adenine on glucose uptake were analyzed by measuring the uptake of fluorescent glucose analog (2-NBDG, Molecular Probes) in muscle cell C2C12. C2C12 cells were treated with indicated concentrations of adenine for 30 min at 37°C, and then incubated with 500 µM of fluorescent glucose analog. After 5 min incubation at room temperature, cells were washed three times with Kreb-Hepes buffered solution and fixed in 70% alcohol. The fluorescence of glucose analog in cells was measured using a Fluorescence Microplate Reader System.

Hep G2 cells = assay: Tumor growth assay, Hep G2 implanted subcutaneously; assay type: in vivo; conditions: Hep G2 implanted NOD-SCID mice, daily IP adenine 5, 20 or 50 mg/kg, 14 days post implantation, vs control mice
Protocol: Human liver hepatocellular carcinoma cell line Hep G2 were cultured in high-glucose Dulbecco's modified Eagle's medium (DMEM) containing 10% fetal bovine serum (FBS), 4 mM L-glutamine, 2 mM sodium pyruvate and 1% penicillin/streptomycin (Invitrogen GibcoBRL, Carlsbad, Calif., USA) at 37°C under 5% CO2. For tumor implantation, 5 × 10^6 Hep G2 cells were injected subcutaneously into 8-week-old male nonobese diabetic-severe combined immunodeficiency (NOD-SCID) mice. After implantation, the mice were daily intraperitoneally injected with 5, 20 or 50 mg/kg body weight of adenine and the tumor size was monitored every 3 days.

[2] = test system: Human umbilical vein endothelial cells (HUVECs); assay: ROS production (H2DCF-DA) under high glucose; assay type: cell-based; conditions: 30 mM glucose, 24 h
Protocol: Human umbilical vein endothelial cells (HUVECs) were cultured in Dulbecco's modified Eagle's medium (DMEM) containing 10% fetal bovine serum (FBS), 4 mM L-glutamine, 2 mM sodium pyruvate and 1% penicillin/streptomycin (Invitrogen GibcoBRL, Carlsbad, Calif., USA) at 37°C under 5% CO2. Cells were plated at 2×10^4 per well in black 96-well. Twenty-four hours after plating, medium was changed to fresh DMEM containing either 5.6 or 30 mM glucose and treated with indicated concentration of adenine. Twenty-four hours after treatment, the intracellular ROS was detected using H2DCF-DA. Cells were washed once with PBS and then incubated with 100 µM DCF at 37°C for 30 min. Then the fluorescence of DCF was measured using a Fluorescence Microplate Reader System at 485-nm excitation and 530-nm emission wavelengths.

AMPK = AMPK activation assay (phospho-AMPK Thr172 western blot) in MCF7 cells; assay type: cell-based, human; conditions: 30 min
Protocol: Effects of adenine on AMPK activation were evaluated based on the phosphorylation of AMPK protein upon adenine treatment. Mouse muscle cell C2C12, mouse fibroblast 3T3, human liver carcinoma cell Hep G2, human breast adenocarcinoma cell line MCF7 and human colon adenocarcinoma grade II cell line HT29, human umbilical vein endothelial cell HUVEC, Human acute monocytic leukemiacell THP1, human macrophage cell U937, murine microglia cell BV-2, and mouse neuroblastoma cell Neuro2A and dermal papilla cell were cultured in high-glucose Dulbecco's modified Eagle's medium (DMEM) containing 10% fetal bovine serum (FBS), 4 mM L-glutamine, 2 mM sodium pyruvate and 1% penicillin/streptomycin (Invitrogen GibcoBRL, Carlsbad, Calif., USA) at 37°C, under 5% CO2. Cells were plated at 3 × 10^5 per well in 6-well plates. Twenty-four hours after plating, adenine was added to the culture media as indicated. After 30 min cells were lysed and subject to western blot analysis. Equal amount of protein from each sample was separated by SDS-PAGE and then electroblotted on to PVDF membranes. Membranes were blocked with 3% BSA in PBS for 60 min and incubated with an anti-phospho-AMPK (Thr172) antibody (1:2,000, Cell signaling) or an anti-AMPK antibody (1:2,000, Cell signaling) at 4°C for 16 h followed by the corresponding secondary antibody for 1 h at room temperature (RT). Immunoreactive bands were detected by enhanced chemiluminescence and recorded using Kodak film. The detected signals were scanned and then quantified using TotalLab Quant software (TotalLab).

Nc1ncnc2nc[nH]c12 [Adenine, adenine]
extent of closure ([1]; topical 10-1200 µM adenine on wound bed, dose-dependent, vs control mice): significantly greater | scar width ([1]; topical 10-1200 µM adenine, histological examination, vs vehicle treated wounds): significantly decreased | IC50 (Hep G2): 544 µM | lower body weight (high-fat diet-fed mice): more than 15% | lower plasma glucose (high-fat diet-fed mice): > 30% | lower plasma triacylglycerides (high-fat diet-fed mice): more than 35% | lower plasma glucose (high-fat diet-fed mice; listed as adenine): more than 30% | Glucose uptake (% to control) (muscle cell C2C12; adenine 1 microM): 117±8.1 % to control | Glucose uptake (% to control) (muscle cell C2C12; adenine 10 microM): 261±13.4 % to control | Glucose uptake (% to control) (muscle cell C2C12; adenine 100 microM): 315±11.9 % to control | Glucose uptake (% to control) (muscle cell C2C12; adenine 600 microM): 338±16.5 % to control | growth of tumor (Hep G2 cells): significantly retarded | ROS production (% of 5.6 mM glucose) ([2]; adenine 10 microM): 211 ± 4.3 % of 5.6 mM glucose | ROS production (% of 5.6 mM glucose) ([2]; adenine 100 microM): 116 ± 1.7 % of 5.6 mM glucose | ROS production (% of 5.6 mM glucose) ([2]; adenine 200 microM): 38.1 ± 2.9 % of 5.6 mM glucose | ROS production (% of 5.6 mM glucose) ([2]; adenine 600 microM): 21.7 ± 3.1 % of 5.6 mM glucose | ROS production (% of 5.6 mM glucose) ([2]; adenine 1200 microM): 22.4 ± 2.5 % of 5.6 mM glucose | AMPK activation (fold to control) (AMPK; adenine 1 microM): 1.2 fold to control | AMPK activation (fold to control) (AMPK; adenine 10 microM): 1.6 fold to control | AMPK activation (fold to control) (AMPK; adenine 100 microM): 2.5 fold to control | AMPK activation (fold to control) (AMPK; adenine 200 microM): 3.4 fold to control | AMPK activation (fold to control) (AMPK; adenine 600 microM): 3.7 fold to control

Source: patent EP3050567B1, “COMPOUND FOR ACTIVATING AMPK AND USES THEREOF” (Energenesis Biomedical Co., Ltd., priority 2013, dated 2015)
